Data as given in patent US20060142194A1, “Methods and compounds for treating brain amyloidosis” (Evotec NeuroSciences GmbH, priority 2000, published 2006).
Entries after “also recorded” stand apart in the source; their conditions may differ.

How the values were obtained:
NL-1 (neprilysin like 1) = biological target: T1, NL-1 (neprilysin like 1) (Mus musculus, UniProt Q9JLI3); settings: cited from earlier work
T1 sequence (Q9JLI3 63-765): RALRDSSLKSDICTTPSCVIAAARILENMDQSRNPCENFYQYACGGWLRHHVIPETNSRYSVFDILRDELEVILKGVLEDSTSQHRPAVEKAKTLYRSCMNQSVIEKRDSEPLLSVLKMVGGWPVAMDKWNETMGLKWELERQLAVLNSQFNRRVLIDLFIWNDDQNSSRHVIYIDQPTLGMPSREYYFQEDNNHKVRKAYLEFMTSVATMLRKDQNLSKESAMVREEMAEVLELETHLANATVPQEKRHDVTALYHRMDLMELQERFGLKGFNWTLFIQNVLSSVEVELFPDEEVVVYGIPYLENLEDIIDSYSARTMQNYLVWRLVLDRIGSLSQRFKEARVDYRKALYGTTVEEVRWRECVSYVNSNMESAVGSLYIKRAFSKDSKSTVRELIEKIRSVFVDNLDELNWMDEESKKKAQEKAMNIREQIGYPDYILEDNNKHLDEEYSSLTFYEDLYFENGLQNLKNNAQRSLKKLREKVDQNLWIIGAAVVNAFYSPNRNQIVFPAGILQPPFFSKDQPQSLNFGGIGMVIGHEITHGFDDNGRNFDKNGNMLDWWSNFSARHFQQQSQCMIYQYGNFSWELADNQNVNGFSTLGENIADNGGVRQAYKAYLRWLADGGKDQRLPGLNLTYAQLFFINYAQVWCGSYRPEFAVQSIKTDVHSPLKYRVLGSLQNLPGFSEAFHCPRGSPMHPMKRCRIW

transgenic SwAPP mice [1] = assay: GFAP staining of reactive astrocytes (astrogliosis); assay type: in vivo
Description: Preparation of tissue: For combined Western blot analyses and immunohistochemistry, mice were deeply anesthetized and were perfused transcardially using ice-cold PBS (pH 7.4). Frontal cortices of both hemispheres were homogenized in lysis buffer containing 1% Triton X-100, 10 mM Tris, 250 mM sucrose, and 1× complete proteinase inhibitor cocktail, pH=8 (Roche, Switzerland). The remaining brain tissue was fixed over night in 4% paraformaldehyde solution at 4° C. and washed several times in PBS and embedded in paraffin for immuno-histochemistry. For combined immunocytochemistry and Aβ-ELISA, mice were perfused with 4% paraformaldehyde and postfixed in the same solution over night. The caudal parts of the brains reaching from intraaural 1 to intraaural −2 (Franklin, K. B. J, Paxinos, G. Academic Press, 1997) were dissected and prepared for Aβ ELISA. The remaining brain tissue was embedded in paraffin and then processed for immunohistochemistry. Five μm thick paraffin sections were probed with antibodies against NEP, IDE (Insulin degrading enzyme), ACE (Angiotensin converting enzyme), endopeptidase 24.15 protein, and GFAP (glial fibrillary protein) according to providers' protocols and counterstained with nuclear fast red (Fluka, Switzerland).
Prevention of amyloid formation was accompanied by reduced reactive astrocytosis: Because brain amyloidosis in SwAPP mice is accompanied by reactive astrocytosis, GFAP-reactive astrocytes were analysed in response to the Aβ42-injection protocol (FIG. 6 a-c). […] Similar activation of astrocytes in brain regions unaffected by amyloid plaque formation is a well established finding in transgenic mice that overexpress disease-causing APP mutants (Schenk D. et al., Nature 400, 173-177, 1999). It may be explained by high sensitivity of hippocampal astrocytes to unknown toxic activities related to the expression of the SwAPP transgene; these may well be independent of amyloid plaque formation.

PDAPP transgenic mouse = settings: cited from earlier work
[2] = system: insulin-degrading enzyme (IDE); assay: IDE brain tissue levels by immunohistochemistry and Western blotting; assay type: in vivo, mice; settings: in response to Aβ42 injections
Description: (§1) Preparation of tissue: For combined Western blot analyses and immunohistochemistry, mice were deeply anesthetized and were perfused transcardially using ice-cold PBS (pH 7.4). Frontal cortices of both hemispheres were homogenized in lysis buffer containing 1% Triton X-100, 10 mM Tris, 250 mM sucrose, and 1× complete proteinase inhibitor cocktail, pH=8 (Roche, Switzerland). The remaining brain tissue was fixed over night in 4% paraformaldehyde solution at 4° C. and washed several times in PBS and embedded in paraffin for immuno-histochemistry. For combined immunocytochemistry and Aβ-ELISA, mice were perfused with 4% paraformaldehyde and postfixed in the same solution over night. […]
(§2) Western-blot analysis: Protein concentration of brain extracts were determined with the Bredford protein assay and equal amounts of protein (60 μg) were loaded to each lane of 8% acrylamid gels in Laemmli buffer. […]
(§3) Role of other Aβ degrading enzymes: To determine whether other Aβ-degrading proteases were involved in preventing amyloid formation in the above described mice, brain tissue levels of insulin-degrading enzyme (IDE), a 100 kD Zn-metallo-proteinase that is a major Aβ-degrading enzyme in tissue culture (Qiu W. Q. et al., J. Biol. Chem. 273, 32730-32738, 1998; Vekrellis K. et al., J. Neurosci., 20, 1657-1665, 2000) were analysed by immunohistochemistry and Western blotting. […]

APP = APP levels by Western blots of protein extracts; assay type: in vivo; settings: Aβ42- or vehicle treated, or untreated transgenic mice
Description: Western-blot analysis: Protein concentration of brain extracts were determined with the Bredford protein assay and equal amounts of protein (60 μg) were loaded to each lane of 8% acrylamid gels in Laemmli buffer. After electrophoresis proteins were blotted on nitrocellulose membranes (Amersham). Membranes were probed for NEP using the monoclonal antibody 56C6 at a dilution of 1:50. Blots were stripped in a buffer containing 2% SDS, 62.5 mM Tris (pH 6.8) and 100 mM β-mercaptoethanol at 50° C. for 30 minutes. After stripping the membrane were probed sequentially with anti-Alzheimer precursor protein A4 antibody (clone 22C11, 1:1000), IDE-1 (1:800), ACE (1:200), and the polyclonal antibody to 24.15 protein (1:600). Finally, staining for actin (1:1000) was performed as a loading control. […]
(§4) To be sure that no amyloid plaques were missed in the mice, every 50th coronal section (250 μm apart) of all mice was stained, beginning with a random section of the olfactory bulbs. […] Existing plaques in 3 representative sections of each mouse were counted. […] To determine whether the reduced amyloid pathology was associated with reduced concentrations of transgenic Aβ, human Aβ was measured by a sandwich ELISA that specifically recognized intact human Aβ (Nitsch, R. M. et al., Ann. Neurol. in Press). As expected, no human Aβ was detected by ELISA in wild-type mice.

NEP [3] = assay: NEP immunohistochemistry of brain sections after intracranial Aβ42 injection; assay type: in vivo; settings: single intracranial injection of 1 μl aggregated Aβ42 (350 μM); SwAPP and wild-type mice; 11 and 20 weeks after injection; vs PBS
Description: (§5) Animals: Transgenic mice expressing the AD-causing Swedish double mutant of the human APP gene were generated and bred as described previously (Hsiao K. K. et al., Neuron 15, 1203-1218, 1995; Hsiao K. et al., Science 274, 99-102, 1996). All mice used in this study were the progeny of a single SwAPP male, crossbred to wild-type littermates. The colony was housed under a light cycle of 12 hours with dry food and water ad libitum. The presence of the transgene was determined by PCR on genomic DNA isolated from tail biopsies using specific primers GTGGATAACCCCTCCCCCAGCCTAGACCA and CTGACCACTCGACCAGGTTCTGGGT to the transgene. […] After the injection, the needle was left in place for 1 more minute, and then was slowly withdrawn over a period of 1 minute.
Preparation of tissue: For combined Western blot analyses and immunohistochemistry, mice were deeply anesthetized and were perfused transcardially using ice-cold PBS (pH 7.4). […]
In contrast, in SwAPP mice as well as in wild-type littermates injected with PBS vehicle alone, neuronal NEP staining was weak and diffuse (FIG. 2 a-c, g-i). […] To confirm this finding, we next analysed brain proteins prepared from Aβ42-injected mice extracts by Western blotting.

transgenic SwAPP mice [4] = assay: Brain amyloid plaque staining and counts (thioflavin S, 4G8) in SwAPP mice; assay type: in vivo
Description: as §5, with “minute. […]” for “minute.”
as §4

[5] = system: angiotensin converting enzyme (ACE); assay: ACE brain tissue levels; assay type: in vivo; settings: treated vs untreated mice, any examined time point after Aβ42 injection
Description: as §1, §2, §3

metalloprotease 24.15 = assay: Metalloprotease 24.15 brain levels; assay type: in vivo, mice; settings: in response to Aβ injections
Description: as §1, §2, §3

NEP [6] = assay: Western blot and densitometry of NEP in brain extracts after Aβ42 injection; assay type: in vivo; settings: as early as one week after Aβ42 injection; SwAPP and wild-type mice; vs uninjected or PBS-injected
Description: Actin was used to control for equal loading (a). […] The intensity of each NEP and actin bands was measured using the NIH-Image software. […] Data represent means of each group+SEM * p≦0.05, ** p≦0.01, Mann-Whitney U test. n=3 for each group.
All mice used in this study were the progeny of a single SwAPP male, crossbred to wild-type littermates. The colony was housed under a light cycle of 12 hours with dry food and water ad libitum. […] After the injection, the needle was left in place for 1 more minute, and then was slowly withdrawn over a period of 1 minute.
Western-blot analysis: Protein concentration of brain extracts were determined with the Bredford protein assay and equal amounts of protein (60 μg) were loaded to each lane of 8% acrylamid gels in Laemmli buffer. After electrophoresis proteins were blotted on nitrocellulose membranes (Amersham). Membranes were probed for NEP using the monoclonal antibody 56C6 at a dilution of 1:50. […]

human Aβ = assay: Aβ sandwich ELISA on formic acid extracted brain tissue; assay type: in vivo; settings: SwAPP mice, 20 weeks after injection, n=4; vs untreated SwAPP littermates; p≦0.05
Description: as §1
Aβ-ELISA: For quantitation of Aβ content in mouse brain, protein extracts of fixed brain tissue reaching from the stereotaxic coordinates intraaural 1 to intraaural −2 were prepared. […] 150 μl diluted samples or standards (Aβ40 Bachem) were incubated overnight, washed, and detected with biotinylated monoclonal mouse antibody 6H1 directed against amino acids 1-17 of human Aβ (Evotec Neurosciences GmbH) incubated at a concentration of 1 μg/ml in blocking buffer for 2 hours at 37° C., and visualised with a peroxidase reaction using tetramethylbenzidine as substrate, and detection at 450 nm. […]

Molecule	inhibition of NL-1 (NL-1 (neprilysin like 1))	GFAP-positive astrocytes in hippocampi (transgenic SwAPP mice [1]; Aβ42-treated SwAPP mice)	amyloid plaque-associated clusters of GFAP-positive cells (transgenic SwAPP mice [1]; SwAPP mice after Aβ42 injections)	GFAP staining of reactive astrocytes in cerebral cortices (transgenic SwAPP mice [1]; SwAPP mice, 20 weeks after injection, vs untreated SwAPP littermates)	β-amyloid-plaque formation, neuritic dystrophy and astrogliosis (PDAPP transgenic mouse; immunisation of young animals (6 weeks of age))	extent and progression of AD-like neuropathologies (PDAPP transgenic mouse; treatment of older animals (11 months))	tissue levels of IDE [2]	APP levels (APP)	neuronal NEP immunoreactivity (NEP [3])	thioflavin S- or 4G8-positive amyloid plaques (transgenic SwAPP mice [4]; SwAPP mice at 31 weeks of age, 20 weeks after single injection (4/4), vs untreated SwAPP mice)	plaque counts of 4G8 stained amyloid plaques (transgenic SwAPP mice [4]; SwAPP mice, 20 weeks after injection, vs untreated littermates, p≦0.05)	ACE levels [5]	metalloprotease 24.15 levels (metalloprotease 24.15)	NEP protein levels in brain extracts (Western blot) (NEP [6])	brain Aβ levels (ELISA, formic acid extracted total Aβ) (human Aβ)
CC(C)C[C@H](NP(=O)(O)O[C@@H]1O[C@@H](C)[C@H](O)[C@@H](O)[C@H]1O)C(=O)N[C@@H](Cc1c[nH]c2ccccc12)C(=O)O [phosphoramidon]	efficiently inhibited														
Aβ42: Fibrillar aggregated synthetic Aβ42 prepared by resuspending lyophilized Aβ42 (Bachem) in PBS, pH 7.4 by shaking for 48 hours at 37° C.		abundant	completely absent	significantly lower	essentially prevented	markedly reduced	no differences	no difference	increased	significant reduction; also recorded: completely free	significantly reduced; also recorded: marked significant decrease	did not differ	unchanged	significant increase; also recorded: significantly higher	significantly reduced; also recorded: untreated control SwAPP mice (n=4) were significantly higher than in Aβ42-treated SwAPP mice
